Literature values, collected in patent EP1337618B1, “CLEANING TABLETS” (UNILEVER N.V., priority 2000, dated 2002).
Where two headings read alike, the source gives them in different places.

[1] = at 20°C, other common materials

solubility in water (at 20°C)	Water Solubility (deionised water at 20°C, highly water-soluble materials) [g/100g]	Structure (SMILES)	Water Solubility [1] [g/100g]
–	–	O=P(O)(O)OP(=O)(O)OP(=O)(O)O [Sodium tripolyphosphate anhydrous]	15
exceeding 100 gms per 100ml water	>100	NC(N)=O [Urea]	–
–	–	O=BO[O-].[Na+] [Sodium perborate anhydrous]	3.7
